Read-outs that look alike come from different tables or passages of the source.
Key:
AP-1060 (ETV6-NTRK3) = assay: Cell viability assay; conditions: read-out: IC50 in cell proliferation assay
[1] = target: panel of 255 wild-type kinases (Homo sapiens, UniProt Q00526); assay: Kinase panel profiling at 1 µmol/L (MSA or IMAP), percentage inhibition; assay type: biochemical; conditions: read-out: %-inhibition CDK3/CycE1
[2] = target: panel of 255 wild-type kinases (Homo sapiens, UniProt P50613); assay: as above; assay type: biochemical; conditions: read-out: %-inhibition CDK7/CycH/MAT1
[3] = target: panel of 255 wild-type kinases (Homo sapiens, UniProt Q96RG2); assay: as above; assay type: biochemical; conditions: read-out: %-inhibition, PASK
[4] = target: panel of 255 wild-type kinases (Homo sapiens, UniProt P49760); assay: as above; assay type: biochemical; conditions: read-out: %-inhibition at 1 µmol/L, CLK2
[5] = target: panel of 255 wild-type kinases (Homo sapiens, UniProt O75582); assay: as above; assay type: biochemical; conditions: read-out: %-inhibition, MSK1
[6] = target: panel of 255 wild-type kinases (Homo sapiens, UniProt Q9HBH9); assay: as above; assay type: biochemical; conditions: read-out: %-inhibition, MNK2
[7] = target: panel of 255 wild-type kinases (Homo sapiens, UniProt Q13177); assay: as above; assay type: biochemical; conditions: read-out: %-inhibition, PAK2
[8] = target: panel of 255 wild-type kinases (Homo sapiens, UniProt P45983); assay: as above; assay type: biochemical; conditions: read-out: %-inhibition at 1 µmol/L, JNK1
[9] = target: panel of 255 wild-type kinases (Homo sapiens, UniProt P22607); assay: as above; assay type: biochemical; conditions: read-out: %-inhibition at 1 µmol/L, FGFR3
134 cancer cell lines = assay: Cell viability assay (ATPlite, 72 hours), IC50 on cancer cell line panel

## CNC(=O)c1ccc(-c2cnc3ncc(Cc4ccc5ncccc5c4)n3n2)cc1F [capmatinib]
AP-1060 (ETV6-NTRK3)
  IC50: > 31.6 µM
[1]
  inhibition at 1 µM: -14%
[2]
  inhibition at 1 µM: -0.376%
[3]
  inhibition at 1 µM: -5%
[4]
  inhibition at 1 µM: 7%
[5]
  inhibition at 1 µM: 4%
[6]
  inhibition at 1 µM: -4%
[7]
  inhibition at 1 µM: -1.68%
[8]
  inhibition at 1 µM: -5.59%
[9]
  inhibition at 1 µM: 2%
134 cancer cell lines; HEC-6, read-out: IC50 in cell proliferation assay
  IC50: > 31.6 µM
134 cancer cell lines; Homo sapiens, 769-P, read-out: IC50 in cell proliferation assay
  IC50: > 31.6 µM
134 cancer cell lines; Homo sapiens, 786-0, read-out: IC50 in cell proliferation assay
  IC50: > 31.6 µM
134 cancer cell lines; Homo sapiens, A 172, read-out: IC50 in cell proliferation assay
  IC50: > 31.6 µM
134 cancer cell lines; Homo sapiens, A204, read-out: IC50 in cell proliferation assay
  IC50: > 31.6 µM
134 cancer cell lines; Homo sapiens, A498, read-out: IC50 in cell proliferation assay
  IC50: > 31.6 µM
134 cancer cell lines; Homo sapiens, A549, read-out: IC50 in cell proliferation assay
  IC50: > 31.6 µM
134 cancer cell lines; Homo sapiens, A704, read-out: IC50 in cell proliferation assay
  IC50: > 31.6 µM
134 cancer cell lines; Homo sapiens, A-375, read-out: IC50 in cell proliferation assay
  IC50: > 31.6 µM
134 cancer cell lines; Homo sapiens, A-427, read-out: IC50 in cell proliferation assay
  IC50: 29.6 µM
134 cancer cell lines; Homo sapiens, ACHN, read-out: IC50 in cell proliferation assay
  IC50: > 31.6 µM
134 cancer cell lines; Homo sapiens, AN3-CA, read-out: IC50 in cell proliferation assay
  IC50: > 31.6 µM
134 cancer cell lines; Homo sapiens, ASPC1, read-out: IC50 in cell proliferation assay
  IC50: > 31.6 µM
134 cancer cell lines; Homo sapiens, AU565, read-out: IC50 in cell proliferation assay
  IC50: 5.52 µM
134 cancer cell lines; Homo sapiens, BT-20, read-out: IC50 in cell proliferation assay
  IC50: > 31.6 µM
134 cancer cell lines; Homo sapiens, BT-474, read-out: IC50 in cell proliferation assay
  IC50: > 31.6 µM
134 cancer cell lines; Homo sapiens, BT-549, read-out: IC50 in cell proliferation assay
  IC50: > 31.6 µM
134 cancer cell lines; Homo sapiens, BXPC-3, read-out: IC50 in cell proliferation assay
  IC50: > 31.6 µM
134 cancer cell lines; Homo sapiens, C-33-A, read-out: IC50 in cell proliferation assay
  IC50: > 31.6 µM
134 cancer cell lines; Homo sapiens, CAL-27, read-out: IC50 in cell proliferation assay
  IC50: > 31.6 µM
134 cancer cell lines; Homo sapiens, CCF-STTG1, read-out: IC50 in cell proliferation assay
  IC50: > 31.6 µM
134 cancer cell lines; Homo sapiens, CCRF-CEM, read-out: IC50 in cell proliferation assay
  IC50: 28.3 µM
134 cancer cell lines; Homo sapiens, COLO 205, read-out: IC50 in cell proliferation assay
  IC50: > 31.6 µM
134 cancer cell lines; Homo sapiens, COLO-829, read-out: IC50 in cell proliferation assay
  IC50: > 31.6 µM
134 cancer cell lines; Homo sapiens, DLD-1, read-out: IC50 in cell proliferation assay
  IC50: > 31.6 µM
134 cancer cell lines; Homo sapiens, DU-145, read-out: IC50 in cell proliferation assay
  IC50: > 31.6 µM
134 cancer cell lines; Homo sapiens, DU-4475, read-out: IC50 in cell proliferation assay
  IC50: 21.4 µM
134 cancer cell lines; Homo sapiens, Daoy, read-out: IC50 in cell proliferation assay
  IC50: > 31.6 µM
134 cancer cell lines; Homo sapiens, DoTc2-4510, read-out: IC50 in cell proliferation assay
  IC50: > 31.6 µM
134 cancer cell lines; Homo sapiens, EOL1, read-out: IC50 in cell proliferation assay
  IC50: > 31.6 µM
134 cancer cell lines; Homo sapiens, FaDu, read-out: IC50 in cell proliferation assay
  IC50: > 31.6 µM
134 cancer cell lines; Homo sapiens, G-361, read-out: IC50 in cell proliferation assay
  IC50: > 31.6 µM
134 cancer cell lines; Homo sapiens, HCC827, read-out: IC50 in cell proliferation assay
  IC50: 8.39 µM
134 cancer cell lines; Homo sapiens, HCC4006, read-out: IC50 in cell proliferation assay
  IC50: > 31.6 µM
134 cancer cell lines; Homo sapiens, HCT-15, read-out: IC50 in cell proliferation assay
  IC50: > 31.6 µM
134 cancer cell lines; Homo sapiens, HCT-116, read-out: IC50 in cell proliferation assay
  IC50: > 31.6 µM
134 cancer cell lines; Homo sapiens, HEC-1, read-out: IC50 in cell proliferation assay
  IC50: > 31.6 µM
134 cancer cell lines; Homo sapiens, HEC-1B, read-out: IC50 in cell proliferation assay
  IC50: > 31.6 µM
134 cancer cell lines; Homo sapiens, HL-60, read-out: IC50 in cell proliferation assay
  IC50: > 31.6 µM
134 cancer cell lines; Homo sapiens, HT, read-out: IC50 in cell proliferation assay
  IC50: > 31.6 µM
134 cancer cell lines; Homo sapiens, HT-1080, read-out: IC50 in cell proliferation assay
  IC50: > 31.6 µM
134 cancer cell lines; Homo sapiens, Hs746T, read-out: IC50 in cell proliferation assay
  IC50: 0.00123 µM
134 cancer cell lines; Homo sapiens, Hs-578T, read-out: IC50 in cell proliferation assay
  IC50: > 31.6 µM
134 cancer cell lines; Homo sapiens, HuTu80, read-out: IC50 in cell proliferation assay
  IC50: > 31.6 µM
134 cancer cell lines; Homo sapiens, J82, read-out: IC50 in cell proliferation assay
  IC50: > 31.6 µM
134 cancer cell lines; Homo sapiens, Jurkat E6.1, read-out: IC50 in cell proliferation assay
  IC50: > 31.6 µM
134 cancer cell lines; Homo sapiens, K562, read-out: IC50 in cell proliferation assay
  IC50: > 31.6 µM
134 cancer cell lines; Homo sapiens, KATO III, read-out: IC50 in cell proliferation assay
  IC50: > 31.6 µM
134 cancer cell lines; Homo sapiens, KG-1, read-out: IC50 in cell proliferation assay
  IC50: > 31.6 µM
134 cancer cell lines; Homo sapiens, KLE, read-out: IC50 in cell proliferation assay
  IC50: > 31.6 µM
134 cancer cell lines; Homo sapiens, KMS-11, read-out: IC50 in cell proliferation assay
  IC50: 9.3 µM
134 cancer cell lines; Homo sapiens, KU812, read-out: IC50 in cell proliferation assay
  IC50: > 31.6 µM

Source: paper PMC9516332 (Frontiers in Oncology, 2022)
